Measurements as given in patent publication US6534637B2, “Synthesis of chlorophenol red glucuronic acid” (Beckman Coulter, Inc., priority 2001, dated 2003).

Key:
[1] = target: T1, E. coli α-D-Glucuronidase (Sigma, G7896) (Escherichia coli, UniProt P05804); assay: Sensitivity of GUD assay (reaction rates by OD, spectrophotometric); format: biochemical
T1 construct: purchased Sigma G7896
Description: E. coli […] (Sigma, G7896) was diluted in PBS buffer containing 10 mM DTT and 0.1% Triton X-100 and either substrate p-nitrophenol glucuronide (Sigma N1627) or phenolsulphonphthaleinyl (or chlorophenol red) glucuronide of the present invention. The final concentration of each substrate was1 mM. The final concentration of GUD was 60 pM, 125 pM, 250 pM, 500 pM, or 1000 pM. Readings of Optical Density (OD) were measured at 415 nm for assay with p-nitrophenol glucuronide and at 574 nm for assay with chlorophenol red glucuronide. OD measurements were conducted over 30 minutes at 37° C. in a Beckman DU70 spectrophotometer and the reaction rates were determined in mOD/min. […] Therefore, the sensitivity of the GUD assay utilizing a substrate of the present invention as compared to the sensitivity of GUD assay with a conventional substrate.

[2] = target: T2, purified β-glucuronidase (Sigma G-7896) (Escherichia coli, UniProt P05804); assay: Enzyme assay: suitability of the substrate for detecting β-glucuronidase; format: biochemical, E. coli; details: 50 MM sodium phosphate buffer, pH 7.0, 10 mM β-mercaptoethanol, 0.1% Triton X-100
T2 construct: purchased Sigma G-7896
Description: The suitability of the chlorophenol red β-D-glucuronic acid substrate (IVA) for detecting β-glucuronidase in a sample was tested following the procedure of Jefferson et al., PNAS (1986) Vol. 83, 8447-8451. The solid product (IVA) was dissolved in water to a final concentration of approximately 100 mM (red-orange product). An aliquot was added to 50 μM of purified β-glucuronidase (Sigma G-7896) in 50 MM sodium phosphate buffer, pH 7.0, 10 mM β-mercaptoethanol and 0.1% Triton X-100.

[3] = Solubility of the GUD substrates (statement); format: physicochemical; details: for liquid homogeneous assay formats

T1 sequence (P05804 whole entry): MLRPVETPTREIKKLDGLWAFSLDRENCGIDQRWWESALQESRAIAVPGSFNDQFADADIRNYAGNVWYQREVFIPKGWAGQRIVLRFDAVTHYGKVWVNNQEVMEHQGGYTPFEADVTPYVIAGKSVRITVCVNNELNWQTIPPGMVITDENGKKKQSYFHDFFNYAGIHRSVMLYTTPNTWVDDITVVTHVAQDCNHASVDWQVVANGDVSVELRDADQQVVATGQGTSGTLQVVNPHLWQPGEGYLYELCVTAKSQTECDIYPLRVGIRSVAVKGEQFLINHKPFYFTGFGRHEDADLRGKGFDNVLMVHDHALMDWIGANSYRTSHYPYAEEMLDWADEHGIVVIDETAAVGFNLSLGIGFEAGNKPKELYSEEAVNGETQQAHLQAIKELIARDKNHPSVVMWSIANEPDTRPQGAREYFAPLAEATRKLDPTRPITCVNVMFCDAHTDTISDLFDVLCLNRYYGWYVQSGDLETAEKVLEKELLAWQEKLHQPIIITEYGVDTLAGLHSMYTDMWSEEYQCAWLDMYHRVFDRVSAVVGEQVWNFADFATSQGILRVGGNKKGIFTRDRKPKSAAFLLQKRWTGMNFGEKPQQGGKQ
T2 sequence (P05804 whole entry): as above

O=C1C=C/C(=C(/c2ccc(OC3OC(C(=O)O)[C@@H](O)C(O)C3O)c(Cl)c2)c2ccccc2S(=O)(=O)[O-])C=C1Cl.[Na+] (stereo partly drawn) [IVA, Chlorophenol Red β-D-Glucuronic Acid]
Reaction rate (mOD/min) relative to the nitrophenol-glucuronide substrate ([1]; each substrate 1 mM, GUD 60-1000 pM, 37° C., 30 minutes, OD at 574 nm vs 415 nm): 5.76 fold | Signal intensity relative to nitro-phenol glucuronide (FIG. 1) ([1]; identical amounts of GUD added to each substrate): about six-fold | Suitability as substrate: appearance of a violet product with absorbance maximum at 575 nm [2]: suitable for the detection of β-glucuronidase | Solubility [3]: highly soluble
